Measurements: patent publication US12116698B1, “Protein surface recognition via chemically enhanced phage display” (The Trustees of Boston College, priority 2019, dated 2024)
“Also recorded” adds a separate entry of the source. Where a SMILES comes first, the peptide text is derived from it. Where no end group is shown, it is not given here. [ ]: non-standard residue; d: D form. The star is where a group is joined. APBA = (2-acetyl-5-(3-(2-iodoacetamido)propoxy)phenyl)boronic acid, Cys modified with it (Cm in name), CC(=O)c1ccc(OCCCNC(=O)C*)cc1B(O)O; X1 = CC(=O)c1ccc(OCCCNC(=O)C*)cc1B(O)O; Dap = NC[C@H](N)C(=O)O; Cam = NC(=O)C*

How the values were obtained:
[1] = molecular target: streptavidin (Streptomyces avidinii, UniProt P22629); type: binding; conditions: for fluorescence brightness of streptavidin beads on addition of BSA: BSA 1 mg/mL; for fluorescence staining of streptavidin beads after surface lysine acetylation: beads treated with Ac-NHS, 3 mM; for fluorescence staining of streptavidin-coated beads: excess biotin present; for effect of biotin on fluorescence staining of streptavidin-coated beads: with and without biotin; for staining of streptavidin-coated beads by SrtA screen peptides: even at 25 μm; for staining of streptavidin beads without SrtA coating: streptavidin beads alone, no SrtA
streptavidin, sequence (P22629 37-163 limits assumed): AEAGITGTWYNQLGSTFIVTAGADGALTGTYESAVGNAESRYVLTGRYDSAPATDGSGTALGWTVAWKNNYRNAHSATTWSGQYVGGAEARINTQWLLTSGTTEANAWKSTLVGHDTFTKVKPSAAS

[2] = molecular target: T1, sortase A (SrtA) (Staphylococcus aureus, UniProt Q2FV99); type: binding, S. aureus; conditions: for staining of SrtA-coated beads in the presence of BSA: 10 mg/mL BSA; for fluorescence staining of SrtA-coated beads: peptide at 25 μM
T1 sequence (Q2FV99 whole entry): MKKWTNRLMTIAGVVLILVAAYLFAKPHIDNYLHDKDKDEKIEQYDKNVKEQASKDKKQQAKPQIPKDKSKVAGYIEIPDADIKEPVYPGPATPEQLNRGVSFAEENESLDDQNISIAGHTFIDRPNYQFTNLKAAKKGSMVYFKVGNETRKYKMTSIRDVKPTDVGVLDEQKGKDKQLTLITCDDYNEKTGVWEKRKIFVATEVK

[3] = molecular target: T1, sortase A (SrtA); conditions: competition with DMMA
From the text: To probe the peptides' binding site on SrtA, a competition experiment was designed using a known small molecule inhibitor of SrtA, DMMA (FIG. 8E).

Molecule	fluorescence brightness of streptavidin beads on addition of BSA [1]	fluorescence staining of streptavidin beads after surface lysine acetylation [1]	fluorescence staining of streptavidin-coated beads [1]	effect of biotin on fluorescence staining of streptavidin-coated beads [1]	staining of streptavidin-coated beads by SrtA screen peptides [1]	staining of streptavidin beads without SrtA coating [1]	staining of SrtA-coated beads in the presence of BSA [2]	fluorescence staining of SrtA-coated beads [2]	effect of DMMA addition on SrtA binding [3]
CC(=O)c1ccc(OCCCNC(=O)CSC[C@H](NC(=O)[C@H](C)N)C(=O)N[C@H](C(=O)N2CCC[C@H]2C(=O)N[C@@H](CCCNC(=N)N)C(=O)N[C@@H](CO)C(=O)N[C@@H](C)C(=O)N[C@@H](CC(N)=O)C(=O)N[C@@H](Cc2ccc(O)cc2)C(=O)N[C@@H](CSCC(=O)NCCCOc2ccc(C(C)=O)c(B(O)O)c2)C(=O)NCC(=O)NCC(=O)NCC(=O)N[C@@H](CN)C(N)=O)[C@@H](C)O)cc1B(O)O [SA1, ACmTPRSANYCmGGGDap] (H-AC(X1)TPRSANYC(X1)GGG[Dap]-NH2; N-terminus and C-terminus assumed)	minimally affected	completely abolished the fluorescence staining	fluorescence staining of the beads at low micromolar concentrations	marginal differences in fluorescence intensity with and without biotin					
CC(=O)c1ccc(OCCCNC(=O)CSC[C@H](NC(=O)[C@H](C)N)C(=O)N[C@@H](CC(=O)O)C(=O)NCC(=O)N[C@@H](CCCNC(=N)N)C(=O)N2CCC[C@H]2C(=O)N[C@@H](CC(=O)O)C(=O)N[C@@H](CCCNC(=N)N)C(=O)N[C@@H](C)C(=O)N[C@@H](CSCC(=O)NCCCOc2ccc(C(C)=O)c(B(O)O)c2)C(=O)NCC(=O)NCC(=O)NCC(=O)N[C@@H](CN)C(N)=O)cc1B(O)O [SA2, ACmDGRPDRACmGGGDap] (H-AC(X1)DGRPDRAC(X1)GGG[Dap]-NH2; N-terminus and C-terminus assumed)	minimally affected	greatly reduced the fluorescence staining	fluorescence staining of the beads at low micromolar concentrations	marginal differences in fluorescence intensity with and without biotin					
CC(=O)c1ccc(OCCCNC(=O)CSC[C@H](NC(=O)[C@H](C)N)C(=O)N[C@@H](Cc2c[nH]cn2)C(=O)N2CCC[C@H]2C(=O)N[C@H](C(=O)N[C@@H](CO)C(=O)NCC(=O)N[C@@H](CCC(N)=O)C(=O)N[C@@H](CCCCN)C(=O)N[C@@H](CSCC(=O)NCCCOc2ccc(C(C)=O)c(B(O)O)c2)C(=O)NCC(=O)NCC(=O)NCC(=O)N[C@@H](CN)C(N)=O)C(C)C)cc1B(O)O [W1, ACmHPVSGQKCmGGGDap] (H-AC(X1)HPVSGQKC(X1)GGG[Dap]-NH2)					fail to stain streptavidin-coated beads	little binding to the agarose beads	greater inhibition was observed	strong fluorescence staining of the SrtA-coated beads	no inhibition of the SrtA binding
CC(=O)c1ccc(OCCCNC(=O)CSC[C@H](NC(=O)[C@H](C)N)C(=O)N[C@@H](CC(C)C)C(=O)N[C@@H](CC(N)=O)C(=O)N[C@@H](CO)C(=O)N[C@@H](CO)C(=O)N[C@@H](CCC(N)=O)C(=O)N2CCC[C@H]2C(=O)N[C@@H](CO)C(=O)N[C@@H](CSCC(=O)NCCCOc2ccc(C(C)=O)c(B(O)O)c2)C(=O)NCC(=O)NCC(=O)NCC(=O)N[C@@H](CN)C(N)=O)cc1B(O)O [W2, ACmLNSSQPSCmGGGDap] (H-AC(X1)LNSSQPSC(X1)GGG[Dap]-NH2; N-terminus and C-terminus assumed)					fail to stain streptavidin-coated beads	little binding to the agarose beads	effective binding; also recorded: stain the SrtA coated beads	strong fluorescence staining of the SrtA-coated beads	binds the SrtA surface instead of the catalytic site; also recorded: no inhibition of the SrtA binding
ACmIQKNTTTCmGGGDap (AC(APBA)IQKNTTTC(APBA)GGG[Dap]; not fully specified (residue 14); also: APBA dimer modification, fluorescent label on Dap14) [W3]					fail to stain streptavidin-coated beads	no fluorescence staining of the streptavidin beads alone		weak fluorescence staining of SrtA-coated beads; also recorded: much lower fluorescence staining of the beads	
ACmTPNKTPKCmGGGDap (AC(APBA)TPNKTPKC(APBA)GGG[Dap]; not fully specified (residue 14); also: APBA dimer modification, fluorescent label on Dap14) [W4]					fail to stain streptavidin-coated beads	no fluorescence staining of the streptavidin beads alone		weak fluorescence staining of SrtA-coated beads; also recorded: much lower fluorescence staining of the beads	
AcmDGRPDRACmGGGDap (AC(Cam)DGRPDRAC(APBA)GGG[Dap]; not fully specified (residue 14); also: fluorescent label on Dap, identity not given here) [SA2-IA, reference compound]			failed to stain the streptavidin beads						
AcmTPRSANYCmGGGDap (AC(Cam)TPRSANYC(APBA)GGG[Dap]; not fully specified (residue 14); also: fluorescent label on Dap, identity not given here) [SA1-IA, reference compound]			failed to stain the streptavidin beads						
